Assay results reported in US8809369B2, “Tetrahydroquinoline derivatives” (Hoffmann-La Roche Inc., priority 2011, dated 2014).

What was measured:
[1] = system: AMP-activated protein kinase (AMPK); assay: p-AMPK expression level in L6 cell line by Western blot; format: cell-based; details: L6 cells, 2 hours compound treatment
Procedure: (§1) Evaluation of p-AMPK and p-ACC expression level in L6 cell line by Western-Blot
(§2) This method evaluates the changes of AMP-activated protein kinase (AMPK) and ACC (acetyl-CoA carboxylase) activity by small molecular modulators through detecting the level of p-AMPK and p-ACC proteins in L6 cells using Western blot.
(§3) L6 cells are maintained in DMEM medium supplemented with 10% FBS in 10-cm dishes. Prior to compounds treatment, L6 cells are seeded in 12-well-plates at concentration of 3×10^4 cells per well. After 24 hours of incubation in 12-well plates, L6 cells are differentiated by replacing the 10% FBS-DMEM medium with 2% FBS-DMEM. Differentiation usually takes 5 days, during which the culture medium is changed every 2 days.
(§4) The compound concentrations typically range from 32 μM to 0.5 μM with 2-fold dilution in 2 ml DMEM and 7 doses. The final DMSO concentration is 0.4%. Berberine is used as a positive control at concentration of 16 μM. Before compound treatment, starve L6 cells for 2 hours by replacing the medium with DMEM, and then gently aspirate the media from each well. Add the compounds into the plates and incubate at 37 degree 5% CO2 for 2 hours.
(§5) Prepare lysis buffer (RIPA buffer with protease-inhibitors and phosphorate-inhibitors) and place it on ice. After two hour's compound treatment, aspirate the medium from 12-well plates, add 70 ul lysis buffer to each well and keep the plates on ice for 5 min. Then scrape the cell lysate off the plates and transfer it to 1.5 ml eppendorf tubes. Keep the tube on ice for more 10 min, centrifugate the lysate at 13000 rpm, 4 degrees for 15 min and transfer the supernatant to clean tubes.
(§6) Determine protein concentration for each sample using Quickstart Bradford protein quantitation kit. Mix 20 ug protein sample with 4 times loading buffer, heat them at 100° C. for 5 min, store the sample in −80° C. or perform Western blot assay directly. For Western blot assay, load 20 ug samples and 10 ul Pre-stained Protein Maker into 4-12% SDS-PAGE gradient gel. Run the samples at 100 V in the stacking gel and at 120 V in resolving gel until the Bromophenol dye reaches the bottom. Transfer the electrophoresed proteins to a PVDF membrane using Bio-Rad's Transblot for 120 min at 300 mA. Following the completion of transfer, the membrane is blocked with 5% non-fat milk for 2 hours at room temperature before incubated with primary antibody (p-AMPK and p-ACC) at 4° C. overnight. On the next day wash the membrane twice with TBST, add secondary antibody and incubate for 1 hour at room temperature. Wash the membrane twice with TBST. Develop p-AMPK and p-ACC protein expression level on the film in dark room with Amersham ECL plus kit. The bands of each sample are quantitated by Bio-Rad system, The AC1.3 value is analyzed using Prism 5.0.

[2] = system: ACC (acetyl-CoA carboxylase); assay: p-ACC expression level in L6 cell line by Western blot; format: cell-based; details: Rattus norvegicus, L6 cells, 2 hours compound treatment, read-out: Activity AC1.3 (ACCp)
Procedure: as §1, §2, §3, §4, §5, §6

With `CC1(C)CC(c2cc(F)cc(N3CCOCC3)c2)Nc2ccc(C(=O)NS(C)(=O)=O)cc21` (stereo not drawn) [Example 4, N-[2-(3-fluoro-5-morpholin-4-yl-phenyl)-4,4-dimethyl-1,2,3,4-tetrahydro-quinoline-6-carbonyl]-methanesulfonamide] the “Activity AC1.3 (AMPKp)” value [1] was 6.76 µM and the EC (1.3-fold) [2] was 6.23 µM.
In the case of `CC1(C)CC(c2cccc(N3CCOCC3)c2)Nc2ccc(S(=O)(=O)N3CCOCC3)cc21` (stereo not drawn) [Example 12, 4,4-Dimethyl-6-(morpholine-4-sulfonyl)-2-(3-morpholin-4-yl-phenyl)-1,2,3,4-tetrahydro-quinoline], the “Activity AC1.3 (AMPKp)” value [1] is reported as 5.70 µM and the EC (1.3-fold) [2] is reported as 1.86 µM.
In the case of `CC1(C)CC(c2cccc(N3CCOCC3)c2)Nc2ccc(S(=O)(=O)NC3CCC3)cc21` (stereo not drawn) [Example 15, 4,4-Dimethyl-2-(3-morpholin-4-yl-phenyl)-1,2,3,4-tetrahydro-quinoline-6-sulfonic acid cyclobutylamide], the “Activity AC1.3 (AMPKp)” value [1] is reported as 0.1 µM and the EC (1.3-fold) [2] is reported as 0.1 µM.
For `CC1(C)CC(c2cc(F)cc(N3CCOCC3)c2)Nc2ccc(S(=O)(=O)NC3CCC3)cc21` (stereo not drawn) [Example 16, 2-(3-Fluoro-5-morpholin-4-yl-phenyl)-4,4-dimethyl-1,2,3,4-tetrahydro-quinoline-6-sulfonic acid cyclobutylamide], the “Activity AC1.3 (AMPKp)” value [1] was 19.4 µM and the EC (1.3-fold) [2] was 3.21 µM.
`CC1(C)CC(c2cccc(-c3ccccc3O)c2)Nc2ccc(S(=O)(=O)NC3CCC3)cc21` (stereo not drawn) [Example 17, 2-(2′-Hydroxy-biphenyl-3-yl)-4,4-dimethyl-1,2,3,4-tetrahydro-quinoline-6-sulfonic acid cyclobutylamide] was tested, and the “Activity AC1.3 (AMPKp)” value [1] was 0.41 µM and the EC (1.3-fold) [2] was 0.05 µM.
`CC1(C)CC(c2cccnc2)Nc2ccc(C(=O)NS(C)(=O)=O)cc21` (stereo not drawn) [Example 18, N-(4,4-dimethyl-2-pyridin-3-yl-1,2,3,4-tetrahydro-quinoline-6-carbonyl)-methanesulfonamide] was tested, and the “Activity AC1.3 (AMPKp)” value [1] was 7.98 µM and the EC (1.3-fold) [2] was 20 µM.
With `Cc1ccc(N2CCOCC2)cc1C1CC(C)(C)c2cc(C(=O)NS(C)(=O)=O)ccc2N1` (stereo not drawn) [Example 22, N-[4,4-dimethyl-2-(2-methyl-5-morpholin-4-yl-phenyl)-1,2,3,4-tetrahydro-quinoline-6-carbonyl]-methanesulfonamide] the “Activity AC1.3 (AMPKp)” value [1] was 0.02 µM and the EC (1.3-fold) [2] was 0.16 µM.
`CC(C)(C)c1ccc(-c2cccc(C3CC(C)(C)c4cc(C(=O)NS(=O)(=O)C5CC5)ccc4N3)c2)cc1` (stereo not drawn) [Example 40, Cyclopropanesulfonic acid [2-(4′-tert-butyl-biphenyl-3-yl)-4,4-dimethyl-1,2,3,4-tetrahydro-quinoline-6-carbonyl]-amide] was tested, and the “Activity AC1.3 (AMPKp)” value [1] was 6.6 µM and the EC (1.3-fold) [2] was 6.17 µM.
With `Cc1ccc(N2CCN(c3cncc(C4CC(C)(C)c5cc(C(=O)NS(C)(=O)=O)ccc5N4)c3)CC2)c(C)c1` (stereo not drawn) [Example 49, N-(2-{5-[4-(2,4-dimethyl-phenyl)-piperazin-1-yl]-pyridin-3-yl}-4,4-dimethyl-1,2,3,4-tetrahydro-quinoline-6-carbonyl)-methanesulfonamide] the “Activity AC1.3 (AMPKp)” value [1] was 0.15 µM and the EC (1.3-fold) [2] was 6.93 µM.
`Cc1ccc(N2CCN(c3cccc(C4CC(C)(C)c5cc(C(=O)NS(C)(=O)=O)ccc5N4)c3)CC2)c(C)c1` (stereo not drawn) [Example 53, N-(2-{3-[4-(2,4-dimethyl-phenyl)-piperazin-1-yl]-phenyl}-4,4-dimethyl-1,2,3,4-tetrahydro-quinoline-6-carbonyl)-methanesulfonamide] was tested, and the “Activity AC1.3 (AMPKp)” value [1] was 4.79 µM and the EC (1.3-fold) [2] was 11.7 µM.
In the case of `Cc1ccccc1N1CCN(c2cccc(C3CC(C)(C)c4cc(F)cc(C(=O)NS(C)(=O)=O)c4N3)c2)CC1` (stereo not drawn) [Example 57, N-{6-fluoro-4,4-dimethyl-2-[3-(4-o-tolyl-piperazin-1-yl)-phenyl]-1,2,3,4-tetrahydro-quinoline-8-carbonyl}-methanesulfonamide], the “Activity AC1.3 (AMPKp)” value [1] is reported as 0.85 µM and the EC (1.3-fold) [2] is reported as 0.61 µM.
In the case of `Cc1ccccc1N1CCN(c2cccc(C3CC(C)(C)c4cc(F)cc(C(=O)NS(=O)(=O)C5CC5)c4N3)c2)CC1` (stereo not drawn) [Example 58, Cyclopropanesulfonic acid {6-fluoro-4,4-dimethyl-2-[3-(4-o-tolyl-piperazin-1-yl)-phenyl]-1,2,3,4-tetrahydro-quinoline-8-carbonyl}-amide], the “Activity AC1.3 (AMPKp)” value [1] is reported as 0.46 µM and the EC (1.3-fold) [2] is reported as 0.36 µM.
In the case of `CC1(C)CC(c2cccc(N3CCN(c4ccccc4F)CC3)c2)Nc2c(C(=O)NS(C)(=O)=O)cc(F)cc21` (stereo not drawn) [Example 59, N-(6-fluoro-2-{3-[4-(2-fluoro-phenyl)-piperazin-1-yl]-phenyl}-4,4-dimethyl-1,2,3,4-tetrahydro-quinoline-8-carbonyl)-methanesulfonamide], the “Activity AC1.3 (AMPKp)” value [1] is reported as 7.73 µM and the EC (1.3-fold) [2] is reported as 0.74 µM.
With `CC1(C)CC(c2cccc(N3CCCC3)c2)Nc2c(C(=O)NS(=O)(=O)C3CC3)cc(Cl)cc21` (stereo not drawn) [Example 72, Cyclopropanesulfonic acid [6-chloro-4,4-dimethyl-2-(3-pyrrolidin-1-yl-phenyl)-1,2,3,4-tetrahydro-quinoline-8-carbonyl]-amide] the “Activity AC1.3 (AMPKp)” value [1] was 0.14 µM and the EC (1.3-fold) [2] was 3.49 µM.
In the case of `CC(C)(C)c1ccc(-c2cncc(C3CC(C)(C)c4cc(C(=O)NS(=O)(=O)C5CC5)ccc4N3)c2)cc1` (stereo not drawn) [Example 74, Cyclopropanesulfonic acid {2-[5-(4-tert-butyl-phenyl)-pyridin-3-yl]-4,4-dimethyl-1,2,3,4-tetrahydro-quinoline-6-carbonyl}-amide], the “Activity AC1.3 (AMPKp)” value [1] is reported as 0.06 µM and the EC (1.3-fold) [2] is reported as 1.67 µM.
Work on `CN(C(=O)c1ccc2c(c1)C(C)(C)CC(c1cccc(N3CCOCC3)c1)N2)S(=O)(=O)C1CC1` (stereo not drawn) [Example 75, Cyclopropanesulfonic acid [4,4-dimethyl-2-(3-morpholin-4-yl-phenyl)-1,2,3,4-tetrahydro-quinoline-6-carbonyl]-methyl-amide] yielded an EC (1.3-fold) [2] of 0.3 µM.
For `CC1(C)CC(c2cccc(N3CCN(c4ccccc4)CC3)c2)Nc2c(C(=O)NS(=O)(=O)C3CC3)cccc21` (stereo not drawn) [Example 76, Cyclopropanesulfonic acid {4,4-dimethyl-2-[3-(4-phenyl-piperazin-1-yl)-phenyl]-1,2,3,4-tetrahydro-quinoline-8-carbonyl}-amide], the “Activity AC1.3 (AMPKp)” value [1] was 3.12 µM and the EC (1.3-fold) [2] was 0.57 µM.
